Series [1] has as its system Mycobacterium tuberculosis. Put plainly: Antimycobacterial activity against Mycobacterium tuberculosis H37Rv ATCC 27294 after 28 days by agar dilution method. The class given is functional. The following applies: H37Rv ATCC 27294, 672 h.
The nature of series [2]: Cytotoxicity against HEK293T cells assessed as cell growth inhibition at 50 ug/mL after 72 hrs by MTT assay. The following applies: human, read-out: GI. The class given is cell-based, HEK-293T.

In brackets after ≈: the same amount, converted by molar mass.

The record followed here is ChEMBL document CHEMBL3808383, “Synthesis and antitubercular evaluation of novel dibenzo[b,d]thiophene tethered imidazo[1,2-a]pyridine-3-carboxamides” (Bioorg Med Chem Lett, 2016).

For the compound `O=C(NCc1ccc(OC(F)(F)F)cc1)c1c(-c2ccc3sc4ccccc4c3c2)nc2ccccn12`, the MIC in series [1] (read-out: MIC) is 25 µg/mL.
On the same count and under the same terms, as for `CC[C@@H](CO)NCCN[C@@H](CC)CO` [ETHAMBUTOL], the figure is 3.13 µg/mL.
With `Cc1nc2ccccn2c1C(=O)NCc1ccccc1`, in series [1], the MIC50 amounted to 1.86 µM (≈ 0.493 µg/mL). This counts as single-digit micromolar.
Consider `Cc1ccc(CNC(=O)c2c(-c3ccc4sc5ccccc5c4c3)nc3ccccn23)cc1`, for which the MIC in series [1] (read-out: MIC) is 12.5 µg/mL.
The same measure, in the same setting: as for `O=C(NCc1ccc(Oc2ccc(F)cc2)cc1)c1c(-c2ccc3sc4ccccc4c3c2)nc2ccccn12`, the figure is 25 µg/mL; as for `O=C(NCc1ccc(Oc2ccc(Cl)cc2)cc1)c1c(-c2ccc3sc4ccccc4c3c2)nc2ccccn12`, 25 µg/mL.
Take `COc1ccc(CNC(=O)c2c(-c3ccc4sc5ccccc5c4c3)nc3ccccn23)cc1`: the MIC in series [1] (read-out: MIC) came to 6.25 µg/mL. The inhibition at 72 h, 50 ug/mL in series [2] was determined as 37%.
With `O=C(NCc1ccc(N2CCC(Cc3ccccc3)CC2)cc1)c1c(-c2ccc3sc4ccccc4c3c2)nc2ccccn12`, the values for the MIC in series [1] (read-out: MIC) and in series [1] (read-out: MIC100) were 0.78 µg/mL and 1.3 µM, respectively. Moreover, the inhibition at 72 h, 50 ug/mL in series [2] is 34.8%.
As to `O=C(NCc1ccc(F)cc1)c1c(-c2ccc3sc4ccccc4c3c2)nc2ccccn12`, in series [1] (read-out: MIC), the MIC was determined as 3.13 µg/mL. For the same compound, the inhibition at 72 h, 50 ug/mL in series [2] is 25.8%.
As for `O=C(NCc1ccc(Oc2ccc(OC(F)(F)F)cc2)cc1)c1c(-c2ccc3sc4ccccc4c3c2)nc2ccccn12`, the MIC in series [1] (read-out: MIC) turned out to be 12.5 µg/mL.
In the case of `O=C(NCc1ccc(Cl)cc1)c1c(-c2ccc3sc4ccccc4c3c2)nc2ccccn12`, the MIC in series [1] (read-out: MIC) stood at 25 µg/mL.
As for `O=C(NCc1ccc(Oc2ccccc2)cc1)c1c(-c2ccc3sc4ccccc4c3c2)nc2ccccn12`, the MIC in series [1] (read-out: MIC) is 6.25 µg/mL. The inhibition at 72 h, 50 ug/mL in series [2] came out at 38.4%.
With `CC(C)(C)c1ccc(Oc2ccc(CNC(=O)c3c(-c4ccc5sc6ccccc6c5c4)nc4ccccn34)cc2)cc1`, the MIC in series [1] (read-out: MIC) was found to be 25 µg/mL.
Turning to `NNC(=O)c1ccncc1` [ISONIAZID], in series [1] (read-out: MIC), the MIC was found to be 0.1 µg/mL.
Still for that read-out and setting: as for `O=C(NCc1ccc(N2CCN(c3ccccc3F)CC2)cc1)c1c(-c2ccc3sc4ccccc4c3c2)nc2ccccn12`, the figure is 25 µg/mL.
In the case of `O=C(NCc1ccccc1)c1c(-c2ccc3sc4ccccc4c3c2)nc2ccccn12`, the MIC in series [1] (read-out: MIC) was found to be 3.13 µg/mL; in series [1] (read-out: MIC100), 7.21 µM. Further, in series [2], the inhibition at 72 h, 50 ug/mL was 34.6%.
With `O=C(NCc1ccc(C(F)(F)F)cc1)c1c(-c2ccc3sc4ccccc4c3c2)nc2ccccn12`, in series [1] (read-out: MIC), the MIC was 12.5 µg/mL.
The same measure, in the same setting: as for `NC(=O)c1cnccn1` [PYRAZINAMIDE], the figure is 50 µg/mL.
On to `O=C(NCc1ccc(N2CCSCC2)cc1)c1c(-c2ccc3sc4ccccc4c3c2)nc2ccccn12`, for which the MIC in series [1] (read-out: MIC) was 25 µg/mL.
In series [1], `CCc1nc2ccccn2c1C(=O)NCc1ccc(Oc2ccc(OC(F)(F)F)cc2)cc1` registered an MIC50 of 0.013 µM (≈ 0.00592 µg/mL). This counts as double-digit nanomolar.
Still for that read-out and setting: as for `COc1ccc(CCNC(=O)c2c(C)nc3ccccn23)cc1`, the figure is 2.63 µM (≈ 0.814 µg/mL).
Turning to `O=C(NCc1ccc(N2CCOCC2)cc1)c1c(-c2ccc3sc4ccccc4c3c2)nc2ccccn12`, the MIC in series [1] (read-out: MIC) is 25 µg/mL.
Turning to `CC(C)(C)c1ccc(CNC(=O)c2c(-c3ccc4sc5ccccc5c4c3)nc3ccccn23)cc1`, the figures for the MIC in series [1] (read-out: MIC) and in series [1] (read-out: MIC100) were 1.56 µg/mL and 3.22 µM, respectively. In addition, the inhibition at 72 h, 50 ug/mL in series [2] was found to be 18.8%.
As for `O=C(NCc1ccc(N2CCN(Cc3ccccc3)CC2)cc1)c1c(-c2ccc3sc4ccccc4c3c2)nc2ccccn12`, the MIC in series [1] (read-out: MIC) was found to be 25 µg/mL.
Take `O=C(NCc1ccc(N2CCN(c3ccc(Cl)cc3)CC2)cc1)c1c(-c2ccc3sc4ccccc4c3c2)nc2ccccn12`: the results for the MIC in series [1] (read-out: MIC) and in series [1] (read-out: MIC100) were 1.56 µg/mL and 2.5 µM, respectively. Besides, in series [2], the inhibition at 72 h, 50 ug/mL is 24.4%.
